Data from patent US20240150294A1, “ESTROGEN RECEPTOR ALPHA ANTAGONISTS AND USES THEREOF” (The University of Chicago, priority 2021, published 2024).

The compounds below were run against T1, ERα (Homo sapiens, UniProt P03372) (assay: Transcriptional reporter gene assay (estrogen response element-GFP) in MCF7 cells). Settings: ERE-controlled green fluorescent protein, reduction in fluorescence.
T1 construct: endogenous in cells; host or cells: MCF7
T1 sequence (P03372 1-595): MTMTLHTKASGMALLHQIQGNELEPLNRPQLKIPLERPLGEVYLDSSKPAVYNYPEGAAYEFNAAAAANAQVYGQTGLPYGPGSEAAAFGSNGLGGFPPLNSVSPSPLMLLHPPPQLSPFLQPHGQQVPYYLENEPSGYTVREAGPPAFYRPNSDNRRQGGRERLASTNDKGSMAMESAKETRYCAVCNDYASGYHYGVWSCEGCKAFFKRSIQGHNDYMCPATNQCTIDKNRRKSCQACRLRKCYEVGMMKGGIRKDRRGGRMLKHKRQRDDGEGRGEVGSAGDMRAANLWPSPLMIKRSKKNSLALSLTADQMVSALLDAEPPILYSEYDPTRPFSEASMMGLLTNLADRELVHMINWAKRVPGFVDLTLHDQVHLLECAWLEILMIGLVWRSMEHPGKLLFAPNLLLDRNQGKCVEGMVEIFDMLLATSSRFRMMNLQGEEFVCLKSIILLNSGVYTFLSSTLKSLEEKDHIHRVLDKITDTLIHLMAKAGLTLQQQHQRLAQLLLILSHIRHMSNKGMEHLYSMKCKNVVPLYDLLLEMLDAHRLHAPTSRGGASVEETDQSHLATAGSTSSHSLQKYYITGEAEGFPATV
Type: cell-based
Experimental: The reduction in fluorescence was measured and the IC50 value (nM) was determined for various compounds of formula (I) in comparison to known antagonists.

Row | IC50 [nM] | Structure (SMILES)
1 | 58.8 | CCN1CCC(Oc2ccc(C3c4ccc(O)cc4CC4(CC4)N3C(=O)c3ccccc3)cc2)C1 (stereo not drawn) [Compound 12]
2 | 49.4 | O=C(c1ccccc1)N1C(c2ccc(OCCN3CCCCCC3)cc2)c2ccc(O)cc2CC12CC2 (stereo not drawn) [Compound 5]
3 | 744 | CN(C)CCOc1ccc(C2c3ccc(O)cc3CC3(CC3)N2C(=O)c2ccccc2)cc1 (stereo not drawn) [Compound 19]
4 | 222 | CCNCCOc1ccc(C2c3ccc(O)cc3CC3(CC3)N2C(=O)c2ccccc2)cc1 (stereo not drawn) [Compound 21]
5 | 23.4 | O=C(c1ccccc1)N1C(c2ccc(OCCN3CCCCC3)cc2)c2ccc(O)cc2CC12CC2 (stereo not drawn) [Compound 6]
6 | 4.8 | C[C@H]1CCN(CCOc2ccc(C3c4ccc(O)cc4CC4(CC4)N3C(=O)c3ccccc3)cc2)C1 (stereo partly drawn) [Compound 15]
7 | 19 | CCCN1CCC(COc2ccc(C3c4ccc(O)cc4CC4(CC4)N3C(=O)c3ccccc3)cc2)C1 (stereo not drawn) [Compound 14]
8 | 358 | CCN1CC(Oc2ccc(C3c4ccc(O)cc4CC4(CC4)N3C(=O)c3ccccc3)cc2)C1 (stereo not drawn) [Compound 1]
9 | 130 | CCCN1CC(Oc2ccc(C3c4ccc(O)cc4CC4(CC4)N3C(=O)c3ccccc3)cc2)C1 (stereo not drawn) [Compound 2]

The next lines start with the compound.

Row | Structure (SMILES) | IC50 [nM]
10 | CC1CCN(CCOc2ccc(C3c4ccc(O)cc4CC4(CC4)N3C(=O)c3ccccc3)cc2)C1 (mixture of isomers) [Compound 16] | 3.85
11 | CNCCOc1ccc(C2c3ccc(O)cc3CC3(CC3)N2C(=O)c2ccccc2)cc1 (stereo not drawn) [Compound 20] | 500
12 | CC1=C(c2ccc(O)cc2)[C@H](c2ccc(OCCN3CC[C@@H](C)C3)cc2)Oc2cc(O)ccc21 [OP1074, reference compound] | 0.17
13 | CCN1CCC(CCOc2ccc(C3c4ccc(O)cc4CC4(CC4)N3C(=O)c3ccccc3)cc2)C1 (stereo not drawn) [Compound 13] | 21

Each compound was assayed on halo-ERα (assay: ERα cellular stability, live-cell halo-ERα assay in T47D breast cancer cells). Settings: 0 to 10 μM, 24 hours.
Type: cell-based
Experimental: T47D breast cancer cell lines were generated with stable Tet-ON wild type (WT), Y537S mutation, or D538G halo-ERα mutation and enriched through flow sorting. Cells were cultured for 48 hours in media supplemented with charcoal-stripped fetal bovine serum (FBS) in puromycin. Subsequently, 1 μg/mL doxycycline was added to induce expression and 1 μM G618 antibody was added to follow the expression of the halo-tagged proteins. Cells were then treated with increasing concentrations of a compound of interest between 0 and 10 μM for 24 hours. After treatment, cells were imaged using an INUCYTE™ S3 (Essen BioScience, Ann Arbor, MI). ERα degradation was quantified by using the red channel integrated intensity per image normalized to phase channel confluence area.
Tissue specific activities often correlate with a molecule's influence on ERα levels.

Row | Structure (SMILES) | influence on ERα levels (SERM-like / SERD-like profile)
14 | CCN1CC(Oc2ccc(C3c4ccc(O)cc4CC4(CC4)N3C(=O)c3ccccc3)cc2)C1 (stereo not drawn) [Compound 1] | weak SERD-like profile

The compounds below were run on MCF7 breast cancer cells (assay: Crystal violet endpoint assay of MCF7 cellular viability). Settings: 500 nM, in the presence of 1 nM E2, 1 week.
Type: cell-based
Excerpt: A crystal violet endpoint assay is useful for obtaining quantitative information about the relative density of cells adhering to multi-well cluster dishes. The crystal violet dye stains DNA. Upon solubilization, the amount of dye taken up by the monolayer can be quantified in a spectrophotometer or plate reader when the absorbance of each well is read at 570 nm. A crystal violet assay kit to measure cell viability is commercially available (e.g., Abcam, Cambridge, MA). All antagonist treatments were performed in the presence of 1 nM hormone (E2) for 1 week.

Row | Structure (SMILES) | induction of apoptosis (cellular viability)
15 | CCCN1CCC(COc2ccc(C3c4ccc(O)cc4CC4(CC4)N3C(=O)c3ccccc3)cc2)C1 (stereo not drawn) [Compound 14] | appear to induce apoptosis
16 | CCN1CCC(CCOc2ccc(C3c4ccc(O)cc4CC4(CC4)N3C(=O)c3ccccc3)cc2)C1 (stereo not drawn) [Compound 13] | appear to induce apoptosis

Each compound was assayed on MCF7 breast cancer cells (assay: Cellular proliferation of MCF7 breast cancer cells, 150 hours). Settings: 1 nM E2 + 1 μM compound, serum-starved 48 hours.
Type: cell-based
Experimental: The abilities of exemplary compounds of formula (I) to inhibit the cellular proliferation of MCF7 breast cancer cells were measured. Cells were serum-starved for 48 hours before they were treated with either vehicle (DMSO), 1 nM hormone (estradiol [E2]), or 1 nM E2+1 μM compound in triplicate for 150 hours.

Row | Structure (SMILES) | anti-proliferative activities (fold-change in cell count versus starting cell count)
17 | O=C(c1ccccc1)N1C(c2ccc(OCC3CCN(CCCF)C3)cc2)c2ccc(O)cc2CC12CC2 (stereo not drawn) [Compound 29] | enhanced anti-proliferative activities
18 | O=C(c1ccccc1)N1C(c2ccc(OCC3CCN(CCCF)C3)cc2)c2ccccc2CC12CC2 (stereo not drawn) [Compound 34] | ablated anti-proliferative activities
19 | CCCCN1CCC(COc2ccc(C3c4ccc(O)cc4CC4(CC4)N3C(=O)c3ccccc3)cc2)C1 (stereo not drawn) [Compound 22] | did not enhance anti-proliferative activities compared to compound 14
20 | CC1Cc2cc(O)ccc2C(c2ccc(OC[C@H]3CCN(CCCF)C3)cc2)N1C(=O)c1ccccc1 (stereo partly drawn) [35(S)] | modestly reduced the anti-proliferative activities compared compound 29
21 | CCCN1CC(COc2ccc(C3c4ccc(O)cc4CC4(CC4)N3C(=O)c3ccccc3)cc2)C1 (stereo not drawn) [Compound 4] | improved anti-proliferative activities compared to an ethylazetidine
22 | CC1Cc2cc(O)ccc2C(c2ccc(OCC3CCN(CCCF)C3)cc2)N1C(=O)c1ccccc1 [35(R)] | modestly reduced the anti-proliferative activities compared compound 29
23 | CCCN1CCC(CSc2ccc(C3c4ccc(O)cc4CC4(CC4)N3C(=O)c3ccccc3)cc2)C1 (stereo not drawn) [Compound 27] | did not show an appreciable difference in anti-proliferative activities compared to compound 14
24 | O=C(c1ccccc1)N1C(c2ccc(CCC3CCN(CCCF)C3)cc2)c2ccc(O)cc2CC12CC2 (stereo not drawn) [Compound 25] | reduced anti-proliferative activities compared to compound 14
25 | CCCCCN1CCC(COc2ccc(C3c4ccc(O)cc4CC4(CC4)N3C(=O)c3ccccc3)cc2)C1 (stereo not drawn) [Compound 23] | did not enhance anti-proliferative activities compared to compound 14
26 | CCCN1CCC(CCc2ccc(C3c4ccc(O)cc4CC4(CC4)N3C(=O)c3ccccc3)cc2)C1 (stereo not drawn) [Compound 24] | reduced anti-proliferative activities compared to compound 14
27 | CCCN1CCC(CNc2ccc(C3c4ccc(O)cc4CC4(CC4)N3C(=O)c3ccccc3)cc2)C1 (stereo not drawn) [Compound 26] | reduced anti-proliferative activities compared to compound 14
